How the values were obtained:
[1] = Viability of A375 cells after pretreatment, trypan blue exclusion; format: cell-based; details: human, A375 melanoma cells, vehicle 94%, read-out: Viable cells after pretreatment
Excerpt: Viability was quantified by trypan blue dye exclusion method. The images confirmed the presence of cytoplasmic vacuolization occurred only in the compound 1 treated cells. […] The left flank received cells pretreated with vehicle and the right flank received cells pretreated with compound 1. At 27 days later, mice were photographed, and tumors excised. […] Error bars indicate the SEM for 5 tumors.
To determine whether or not compound 1 could inhibit progression of a tumor that arose from autophagy-dependent cancer cells, melanoma A375 cells were pretreated with either vehicle or compound 1 and then assayed for their ability to produce a tumor. Pretreatment consisted of culturing A375 cells for 8 hours with 10 μM compound 1. The cells were then recovered by trypsinization and their viability confirmed by trypan blue exclusion. […] The cells were then inoculated subcutaneously into the flanks of immuno-compromised mice.

[2] = test system: U2OS cells; experiment: Size of LAMP1-RFP-labeled vacuoles (lysosomes), confocal microscopy; format: cell-based, human
Description: LAMP1 protein is a lysosomal membrane marker. Nuclei were stained with DAPI. Therefore, the enlarged cytoplasmic vacuoles induced by compounds from this invention are lysosomes.
The selection of circular, enlarged, lysosomes was carried out using a size mask of 0.5 to 5.0 μm^2. Punctate lysosomes were selected with a size mask of 0.1 to 1.5 μm^2. Thresholds were the same for all images. Clustered lysosomes were not included in the size analysis. The mean area (μm^2)±SEM was plotted (O). From 235 to 545 lysosomes were measured for each time point. The number of lysosomes per μm^2 (E) was determined at the beginning and end of this experiment and plotted on a separate Y-axis.

[3] = test system: osteosarcoma U2OS cells; experiment: Induction of cytoplasmic vacuoles (enlarged lysosomes) in U2OS cells, light microscopy; format: cell-based, human
Excerpt: Vehicle is the concentration of DMSO that was introduced by addition of compounds.
These effects are dependent on the compound selected, its concentration and the length of time cells are exposed to the compound.
Cells were obtained from the American Type Culture Collection. BORCS5-KO HeLa cells have been described previously. Osteosarcoma U2OS were routinely seeded in 6-well plates (0.5×10^5 cells/well) and cultured in Dulbecco's Modified Eagle's medium supplemented with L-Glutamine, 4.5 g/L Glucose, Sodium Pyruvate, Phenol Red, and either heat-inactivated or normal 10% fetal calf serum at 37° C. in 5% CO2. Approximately 15-19 hours later, the indicated compound was added in 1:1000 dilutions. Results were the same using either heat-inactivated or normal fetal calf serum. Melanoma A375, embryonic kidney 293T and human foreskin fibroblast Hs27 cells were cultured in the same medium, except that cells were seeded into 12-well plates at 10^3 cells/well.
Phase contrast photographs were taken on an Olympus CKX41 microscope. Confocal photographs were taken on a Leica TCS-SP5II. For immunofluorescence microscopy, the cells were fixed in 4% paraformaldehyde (Electron Microscopy Sciences, 15714) in PBS for 12 min, permeabilized with 0.2% Triton X-100 in PBS for 10 min, and blocked in 0.2% BSA (Sigma-Aldrich, A7030) in PBS for 30 min at 37° C. For endogenous LC3 staining, cells were permeabilized in methanol for 20 min at −20° C. after the paraformaldehyde fixation. The cells were sequentially incubated with primary antibodies (LAMP1: Developmental Studies Hybridoma Bank; LC3 and LAMTOR4: Cell Signaling Technology; FLAG epitope: Sigma-Aldrich) and secondary antibodies conjugated to Alexa Fluor dyes (Life Technologies) diluted with 0.2% BSA in PBS for 30 min at 37° C. Coverslips were mounted on glass slides using Fluoromount-G (Electron Microscopy Sciences, 17984-24). Cells were imaged using a Zeiss LSM880 with AiryScan confocal microscope (Carl Zeiss AG, Oberkochen, Germany) or a Leica TCS-SP5II. The final composite images were created and properly analyzed for lysosomal size examination using ImageJ (NIH).

[4] = test system: melanoma A375 cells; experiment: Cytoplasmic vacuolization of A375 cells; format: cell-based, human
[5] = test system: melanoma A375 tumors; experiment: Expansion of preformed A375 tumors in inbred nude mice; format: in vivo; details: 20 or 40 mg/kg intraperitoneally each day for 14 days
Description: (A) Melanoma A375 cells were cultured to 80% confluency and then inoculated subcutaneously into both flanks of inbred nude mice. Palpable tumors (˜40-50 mm^3) appeared within 7 days. (B) Either vehicle or 20 or 40 mg of compound 1 per kg of the mouse was injected intraperitoneally each day for a period of 14 days. Compound 1 was dissolved in sunflower seed oil. Tumors were excised on day 21. […] Error bars indicate the SEM for 6 tumors.
To determine whether or not compound 1 could inhibit expansion of a preformed tumor that arose from autophagy-dependent cancer cells, melanoma A375 cells were inoculated into the flanks of immuno-compromised mice and allowed to form a palpable tumor. Mice were then injected intraperitoneally once a day with varying amount of compound 1.

[6] = target: T1, PIKFYVE (Homo sapiens, UniProt Q9Y2I7); experiment: DiscoverX KINOMEscan dissociation constant; format: binding
T1 construct: purchased DiscoverX (KINOMEscan service, San Diego, Calif.)
T1 sequence (Q9Y2I7 whole entry): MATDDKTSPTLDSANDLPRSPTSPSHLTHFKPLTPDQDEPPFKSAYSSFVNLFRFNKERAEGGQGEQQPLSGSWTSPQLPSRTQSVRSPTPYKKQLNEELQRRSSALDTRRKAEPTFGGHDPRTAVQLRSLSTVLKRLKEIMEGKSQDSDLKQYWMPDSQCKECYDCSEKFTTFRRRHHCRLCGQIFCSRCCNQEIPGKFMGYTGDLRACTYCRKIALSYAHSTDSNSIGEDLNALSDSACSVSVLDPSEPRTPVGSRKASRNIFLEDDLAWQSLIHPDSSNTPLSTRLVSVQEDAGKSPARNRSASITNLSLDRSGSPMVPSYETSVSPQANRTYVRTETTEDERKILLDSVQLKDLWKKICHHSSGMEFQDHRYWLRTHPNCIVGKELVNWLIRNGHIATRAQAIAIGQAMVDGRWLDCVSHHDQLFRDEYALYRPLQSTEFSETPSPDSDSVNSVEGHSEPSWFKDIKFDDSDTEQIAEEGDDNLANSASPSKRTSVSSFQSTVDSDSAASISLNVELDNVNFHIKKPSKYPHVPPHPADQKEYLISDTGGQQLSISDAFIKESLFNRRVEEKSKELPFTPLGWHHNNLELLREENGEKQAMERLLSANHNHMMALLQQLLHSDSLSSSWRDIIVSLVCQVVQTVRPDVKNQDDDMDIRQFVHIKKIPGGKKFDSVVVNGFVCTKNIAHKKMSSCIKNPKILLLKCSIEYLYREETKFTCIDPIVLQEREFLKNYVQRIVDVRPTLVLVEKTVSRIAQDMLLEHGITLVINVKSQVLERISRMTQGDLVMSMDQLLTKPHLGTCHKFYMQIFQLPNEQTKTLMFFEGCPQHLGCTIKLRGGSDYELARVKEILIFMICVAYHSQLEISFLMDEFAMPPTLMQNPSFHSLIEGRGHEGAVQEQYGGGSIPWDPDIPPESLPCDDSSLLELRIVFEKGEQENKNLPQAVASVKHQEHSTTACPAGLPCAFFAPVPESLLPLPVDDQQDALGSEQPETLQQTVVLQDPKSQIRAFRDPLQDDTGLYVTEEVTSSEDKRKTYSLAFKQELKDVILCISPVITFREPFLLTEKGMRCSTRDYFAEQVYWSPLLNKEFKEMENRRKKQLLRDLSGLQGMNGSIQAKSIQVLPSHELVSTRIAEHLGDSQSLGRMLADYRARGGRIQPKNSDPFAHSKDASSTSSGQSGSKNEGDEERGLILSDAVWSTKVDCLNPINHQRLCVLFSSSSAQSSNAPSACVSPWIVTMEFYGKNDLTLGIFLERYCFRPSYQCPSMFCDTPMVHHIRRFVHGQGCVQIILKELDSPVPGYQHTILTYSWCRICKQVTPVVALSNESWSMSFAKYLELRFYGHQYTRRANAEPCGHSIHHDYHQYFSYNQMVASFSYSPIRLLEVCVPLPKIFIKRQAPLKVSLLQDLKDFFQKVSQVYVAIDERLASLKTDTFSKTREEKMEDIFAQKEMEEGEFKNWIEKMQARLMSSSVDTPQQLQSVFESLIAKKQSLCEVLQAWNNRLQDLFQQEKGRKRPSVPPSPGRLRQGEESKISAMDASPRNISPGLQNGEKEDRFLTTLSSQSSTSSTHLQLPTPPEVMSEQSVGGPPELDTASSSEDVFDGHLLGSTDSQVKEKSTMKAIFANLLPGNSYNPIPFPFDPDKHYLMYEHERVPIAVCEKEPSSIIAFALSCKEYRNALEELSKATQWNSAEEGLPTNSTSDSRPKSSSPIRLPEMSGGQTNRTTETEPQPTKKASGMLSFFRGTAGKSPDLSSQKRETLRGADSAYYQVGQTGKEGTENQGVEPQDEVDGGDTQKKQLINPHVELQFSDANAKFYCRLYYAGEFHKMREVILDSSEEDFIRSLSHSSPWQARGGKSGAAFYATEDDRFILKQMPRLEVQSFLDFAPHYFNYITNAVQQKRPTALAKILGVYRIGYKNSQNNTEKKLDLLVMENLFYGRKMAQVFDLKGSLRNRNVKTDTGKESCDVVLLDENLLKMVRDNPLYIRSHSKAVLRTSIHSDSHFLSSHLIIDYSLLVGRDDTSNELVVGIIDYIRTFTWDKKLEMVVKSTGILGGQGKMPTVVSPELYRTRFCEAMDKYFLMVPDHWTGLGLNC
Description: Each kinase was tagged with a unique DNA sequence that allowed the amount of protein bound to the solid support to be quantified by PCR. The top three targets for compound 1 were PIKFYVE, PIP4K2C and MTOR. […] Dissociation constants (Kd) were determined from the amount of kinase captured on the solid support as a function of the test compound concentration (nM) on a log10 scale. Mean Kd values (±range) are given for each compound. The ratio of PIP4K2C to PIKFYVE indicates the relative specificity for these two kinases.
To address this hypothesis, a panel of 468 human kinases were screened for their ability to bind compound 1. […] The top two candidates were PIKFYVE (phosphoinositide kinase FYVE-type zinc finger containing) and PIP4K2C (phosphatidylinositol-5-phosphate 4-kinase). PIKFYVE is a kinase that is essential for mouse development (49) and that prevents endosome enlargement and cytoplasmic vacuolization (50, 51). PIP4K2C is a kinase that is not essential for mouse growth and viability, but it is essential for the immune system (52), mTORC1 signaling (53), and regulation of autophagy (54). The third candidate was MTOR, a kinase that regulates autophagy (55). Therefore, the binding constants (Kd) for all five members of the compound 1-family were determined for each of these three proteins from two independent titration curves, as shown for compound 1.

- Ill effects on mice [5]: no exhibited ill effects
- Standing within the family for PIKFYVE binding [6]: the most potent member
- Kd ([6]; mean of two independent titration curves): 1 nM
Compound: C1=Nc2ccccc2/C1=C/NNc1nc(Nc2ccccc2)nc(N2CCOCC2)n1 [compound 1]
- viability at 8 h, 10 µM [1]: 92%
- Time for lysosomal motility and size to revert after removal of the compound ([2]; live cells expressing LAMP1-RFP): within one hour
- Increase in size of LAMP1-labeled vacuoles ([2]; within 20 hours, 1 μM): 9 fold
- Time to detect vacuoles by light microscopy ([3]; U2OS cells): ≤ 20 min
- Variation of the concentration required to induce vacuolization, most potent compared to least potent ([3]; U2OS cells, compound 1 compared to compound 3): 400 fold
- Concentration at which 80% of the cells were vacuolated ([3]; by 4 hours): 0.01 to 0.1 µM
- Concentration to induce LC3-II accumulation, inhibit proliferation or viability relative to concentration to observe vacuolization ([3]; same U2OS cells): about 30 fold
- Cytoplasmic vacuolization of A375 cells [4]: induced extensive cytoplasmic vacuolization
- Expansion of preformed tumors ([5]; inbred nude mice): inhibited by compound 1 in a dose dependent manner

— patent US11471460B2, “Autophagy modulators for use in treating cancer” (The United States of America,as represented by the …, priority 2017, dated 2022)
